pIC50: −log10 of the molar value.
Assays:
[1] = biological target: T1, Recombinant JAK1 (Amino acids 850-1154) (Homo sapiens, UniProt P23458); test: Kinase-Glo Luminescent Kinase Assay, recombinant JAK1; format: biochemical; settings: 200 μg/ml Poly Glu-Tyr (4:1), ATP 1 uM, 90 min room temperature, luminescence
T1 construct: Recombinant JAK1 (Amino acids 850-1154; NM_002227.2); made in house; host or cells: baculovirus expression system (Bac-to-Bac)
Description: (§1) Recombinant JAK1 (Amino acids 850-1154; NM_002227.2), JAK2 (Amino acids 808-1132; NM_004972.3) and JAK3 (Amino acids 781-1124; NM_000215.3) used in the studies were expressed using Invitrogen's Bac-to-Bac baculovirus expression system according to manufacturer's instructions. Adenosine 5′-triphosphate was obtained from Sigma Aldrich chemicals (Cat # A7699). Poly Glu-Tyr (4:1) sodium salt was obtained from Sigma Aldrich (Cat # P0275), Kinase Glo® Luminescent Kinase assay kit was obtained from Promega (Cat # V6713) Kinase activity was assessed by Promega Kinase-Glo® Luminescent Kinase Assay kit using 200 μg/ml Poly Glu-Tyr (4:1) as substrate and ATP at 1 uM concentration. The reactions were carried out in 384 well plates in total reaction volume of 20 uL. Reaction mixtures contained 50 mM HEPES pH 7.4, 5 mM MgCl2, 1 mM DTT, 0.01% BSA, 0.01% Tween 20. Kinase was pre-incubated with compounds or 1% DMSO for 5 min before addition of substrate and ATP to check for inhibition. Kinase reactions were carried out at room temperature for 90 min. The reactions were stopped by adding 5 μl of Kinase Glo® reagent & 10 μl of reaction mixture followed by measuring luminescence. The luminescent signal is correlated with the amount of ATP present at the end of kinase reaction and is inversely correlated with the amount of kinase activity. For each data point, % inhibition is calculated based on uninhibited reaction (without compound) which is considered as 100% activity over no enzyme or substrate controls. Dose response data is then fit using a four parameter logistic equation using Graph-pad Prism 5 software to determine inhibition constant 50 (IC50).

[2] = biological target: T2, Recombinant JAK3 (Amino acids 781-1124) (Homo sapiens, UniProt P52333); test: Kinase-Glo Luminescent Kinase Assay, recombinant JAK3; format: biochemical; settings: 200 μg/ml Poly Glu-Tyr (4:1), ATP 1 uM, 90 min room temperature, luminescence
T2 construct: JAK3 (Amino acids 781-1124; NM_000215.3); made in house; host or cells: baculovirus expression system (Bac-to-Bac)
T2 sequence (P52333 781-1124): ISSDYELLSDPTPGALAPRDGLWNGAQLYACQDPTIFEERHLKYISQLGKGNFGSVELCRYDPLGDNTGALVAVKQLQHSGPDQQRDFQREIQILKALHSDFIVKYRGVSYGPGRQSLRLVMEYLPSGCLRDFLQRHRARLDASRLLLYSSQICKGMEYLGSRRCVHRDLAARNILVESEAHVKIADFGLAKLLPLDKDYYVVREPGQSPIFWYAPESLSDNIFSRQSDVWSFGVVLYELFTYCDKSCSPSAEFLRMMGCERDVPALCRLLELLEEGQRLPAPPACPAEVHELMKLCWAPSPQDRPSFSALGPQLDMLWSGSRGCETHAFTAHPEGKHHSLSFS
Description: as §1

T1 sequence (P23458 850-1154): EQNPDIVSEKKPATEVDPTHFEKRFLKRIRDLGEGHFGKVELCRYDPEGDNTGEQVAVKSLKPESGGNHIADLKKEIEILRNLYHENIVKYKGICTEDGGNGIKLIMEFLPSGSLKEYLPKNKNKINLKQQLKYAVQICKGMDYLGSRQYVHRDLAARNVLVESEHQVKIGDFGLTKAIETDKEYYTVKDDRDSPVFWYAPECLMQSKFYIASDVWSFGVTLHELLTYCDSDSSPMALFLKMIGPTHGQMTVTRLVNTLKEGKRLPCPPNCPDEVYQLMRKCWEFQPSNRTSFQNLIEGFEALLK

SMILES: CC1CCC(C(=O)NC2CC2)CN1c1ccnc2cnc3[nH]ccc3c12 (single isomer, unassigned) [Ex. 88A, cis-N-cyclopropyl-6-methyl-1-(3H-pyrrolo[3,2-f][1,7]naphthyridin-9-yl)piperidine-3-carboxamide]
- pIC50 [1]: < 7.70
- pIC50 [2]: 7.70 to 9.00

SMILES: CC1CCC(C(=O)NC2CC2)CN1c1ccnc2cnc3[nH]ccc3c12 (single isomer, unassigned) [Ex. 88B, trans-N-cyclopropyl-6-methyl-1-(3H-pyrrolo[3,2-f][1,7]naphthyridin-9-yl)piperidine-3-carboxamide]
- pIC50 [1]: < 7.70
- pIC50 [2]: 7.70 to 9.00

SMILES: CCOC(=O)c1cnc2cnc3c(ccn3S(=O)(=O)c3ccc(C)cc3)c2c1O [Comp. 8, Ethyl 9-hydroxy-3-(p-tolylsulfonyl)pyrrolo[3,2-f][1,7]naphthyridine-8-carboxylate]
- pIC50 [2]: < 7.70

SMILES: CC(C)(C)OC(=O)N1CCCC(c2ccnc3cnc4[nH]ccc4c23)C1 (stereo not drawn) [Comp. 41, tert-butyl 3-(3H-pyrrolo[3,2-f][1,7]naphthyridin-9-yl)piperidine-1-carboxylate]
- pIC50 [1]: 7.70 to 9.00
- pIC50 [2]: 7.70 to 9.00

SMILES: CC(C)(C)OC(=O)N1CCC(c2ccnc3cnc4[nH]ccc4c23)C1 (stereo not drawn) [Comp. 50, tert-butyl 3-(3H-pyrrolo[3,2-f][1,7]naphthyridin-9-yl)pyrrolidine-1-carboxylate]
- pIC50 [1]: 7.70 to 9.00
- pIC50 [2]: < 7.70

SMILES: O=C(CC(F)(F)F)N1CCC(c2ccnc3cnc4[nH]ccc4c23)CC1 [Comp. 88, 3,3,3-trifluoro-1-[4-(3H-pyrrolo[3,2-f][1,7]naphthyridin-9-yl)-1-piperidyl]propan-1-one]
- pIC50 [1]: < 7.70
- pIC50 [2]: < 7.70

SMILES: NC1CCN(c2ccnc3cnc4[nH]ccc4c23)C1 (stereo not drawn) [Comp. 125, 1-(3H-pyrrolo[3,2-f][1,7]naphthyridin-9-yl)pyrrolidin-3-amine]
- pIC50 [2]: < 7.70

SMILES: CC(C)(C)OC(=O)N1CCN(c2ccnc3cnc4[nH]ccc4c23)CC1 [Comp. 127, tert-butyl 4-(3H-pyrrolo[3,2-f][1,7]naphthyridin-9-yl)piperazine-1-carboxylate]
- pIC50 [1]: < 7.70
- pIC50 [2]: < 7.70

SMILES: O=C(C1CC1)N1CCCC(c2ccnc3cnc4[nH]ccc4c23)C1 (stereo not drawn) [Ex. 2, cyclopropyl-[3-(3H-pyrrolo[3,2-f][1,7]naphthyridin-9-yl)-1-piperidyl]methanone]
- pIC50 [1]: 7.70 to 9.00
- pIC50 [2]: 7.70 to 9.00

SMILES: CC(C)C(=O)N1CCCC(c2ccnc3cnc4[nH]ccc4c23)C1 (stereo not drawn) [Ex. 3, 2-methyl-1-[3-(3H-pyrrolo[3,2-f][1,7]naphthyridin-9-yl)-1-piperidyl]propan-1-one]
- pIC50 [1]: < 7.70
- pIC50 [2]: < 7.70

SMILES: O=C(CC(F)(F)F)N1CCCC(c2ccnc3cnc4[nH]ccc4c23)C1 (stereo not drawn) [Ex. 4, 3,3,3-trifluoro-1-[3-(3H-pyrrolo[3,2-f][1,7]naphthyridin-9-yl)-1-piperidyl]propan-1-one]
- pIC50 [1]: 7.70 to 9.00
- pIC50 [2]: 7.70 to 9.00

SMILES: O=C(CC(F)(F)F)N1CCC[C@@H](c2ccnc3cnc4[nH]ccc4c23)C1 [Ex. 4B, (S)3,3,3-trifluoro-1-[3-(3H-pyrrolo[3,2-f][1,7]naphthyridin-9-yl)-1-piperidyl]propan-1-one]
- pIC50 [2]: < 7.70

SMILES: CC(C)CC(=O)N1CCCC(c2ccnc3cnc4[nH]ccc4c23)C1 (stereo not drawn) [Ex. 5, 3-methyl-1-[3-(3H-pyrrolo[3,2-f][1,7]naphthyridin-9-yl)-1-piperidyl]butan-1-one]
- pIC50 [1]: 7.70 to 9.00
- pIC50 [2]: < 7.70

SMILES: O=C(CC(F)(F)F)N1CCC(c2ncnc3cnc4[nH]ccc4c23)C1 (stereo not drawn) [Ex. 33, 3,3,3-Trifluoro-1-[3-(3H-3,4,6,8-tetraaza-cyclopenta[a]naphthalen-9-yl)-pyrrolidin-1-yl]-propan-1-one]
- pIC50 [2]: < 7.70

SMILES: N#CCC(=O)N1CCC(c2ncnc3cnc4[nH]ccc4c23)C1 (stereo not drawn) [Ex. 34, 3-Oxo-3-[3-(3H-3,4,6,8-tetraaza-cyclopenta[a]naphthalen-9-yl)-pyrrolidin-1-yl]-propionitrile]
- pIC50 [2]: < 7.70

SMILES: O=C(C1CC1)N1CCC(c2ncnc3cnc4[nH]ccc4c23)C1 (stereo not drawn) [Ex. 35, Cyclopropyl-[3-(3H-3,4,6,8-tetraaza-cyclopenta[a]naphthalen-9-yl)-pyrrolidin-1-yl]-methanone]
- pIC50 [2]: < 7.70

SMILES: CC(C)C(=O)N1CCC(c2ncnc3cnc4[nH]ccc4c23)C1 (stereo not drawn) [Ex. 36, 2-Methyl-1-[3-(3H-3,4,6,8-tetraaza-cyclopenta[a]naphthalen-9-yl)-pyrrolidin-1-yl]-propan-1-one]
- pIC50 [2]: < 7.70

SMILES: O=C(CCC(F)(F)F)N1CCC(c2ncnc3cnc4[nH]ccc4c23)C1 (stereo not drawn) [Ex. 37, 4,4,4-Trifluoro-1-[3-(3H-3,4,6,8-tetraaza-cyclopenta[a]naphthalen-9-yl)-pyrrolidin-1-yl]-butan-1-one]
- pIC50 [2]: < 7.70

SMILES: CC(C)(C)C(=O)N1CCC(c2ncnc3cnc4[nH]ccc4c23)C1 (stereo not drawn) [Ex. 38, 2,2-Dimethyl-1-[3-(3H-3,4,6,8-tetraaza-cyclopenta[a]naphthalen-9-yl)-pyrrolidin-1-yl]-propan-1-one]
- pIC50 [2]: < 7.70

SMILES: CC(C)CS(=O)(=O)N1CCC(c2ncnc3cnc4[nH]ccc4c23)C1 (stereo not drawn) [Ex. 40, 9-[1-(2-Methyl-propane-1-sulfonyl)-pyrrolidin-3-yl]-3H-3,4,6,8-tetraaza-cyclopenta[a]naphthalene]
- pIC50 [2]: < 7.70

SMILES: N#CCC(=O)N1CC=C(c2ccnc3cnc4[nH]ccc4c23)C1 [Ex. 41, 3-oxo-3-[3-(3H-pyrrolo[3,2-f][1,7]naphthyridin-9-yl)-2,5-dihydropyrrolo-1-yl]propanenitrile]
- pIC50 [2]: < 7.70

SMILES: O=C(CC(F)(F)F)N1CC=C(c2ccnc3cnc4[nH]ccc4c23)C1 [Ex. 42, 3,3,3-trifluoro-1-[3-(3H-pyrrolo[3,2-f][1,7]naphthyridin-9-yl)-2,5-dihyropyrrol-1-yl]propan-1-one]
- pIC50 [2]: < 7.70

SMILES: c1cc(N2CCOCC2)c2c(cnc3[nH]ccc32)n1 [Ex. 64, 4-(3H-pyrrolo[3,2-f][1,7]naphthyridin-9-yl)morpholine]
- pIC50 [2]: < 7.70

SMILES: CN(C(=O)C1CCCC1)C1CCCN(c2ccnc3cnc4[nH]ccc4c23)C1 (stereo not drawn) [Ex. 66, N-methyl-N-[1-(3H-pyrrolo[3,2-f][1,7]naphthyridin-9-yl)-3-piperidyl]cyclopentane-carboxamide]
- pIC50 [2]: < 7.70

SMILES: COCCNC(=O)C1CCCN(c2ccnc3cnc4[nH]ccc4c23)C1 (stereo not drawn) [Ex. 69, N-(2-methoxyethyl)-1-(3H-pyrrolo[3,2-f][1,7]naphthyridin-9-yl)piperidine-3-carboxamide]
- pIC50 [2]: < 7.70

SMILES: c1cc(N2CCCC(N3CCOCC3)C2)c2c(cnc3[nH]ccc32)n1 (stereo not drawn) [Ex. 70, 4-[1-(3H-pyrrolo[3,2-f][1,7]naphthyridin-9-yl)-3-piperidiyl] morpholine]
- pIC50 [2]: < 7.70

SMILES: CC(C)CS(=O)(=O)NC1CCN(c2ccnc3cnc4[nH]ccc4c23)C1 (stereo not drawn) [Ex. 93, 2-methyl-N-[1-(3H-pyrrolo[3,2-f][1,7]naphthyridin-9-yl)pyrrolidin-3-yl]propane-1-sulfonamide]
- pIC50 [2]: < 7.70

SMILES: N#CCS(=O)(=O)NC1CCN(c2ccnc3cnc4[nH]ccc4c23)C1 (stereo not drawn) [Ex. 94, 1-cyano-N-[1-(3H-pyrrolo[3,2-f][1,7]naphthyridin-9-yl)pyrrolidin-3-yl]methanesulfonamide]
- pIC50 [2]: 7.70 to 9.00

SMILES: CC(C)NC(=O)NC1CCN(c2ccnc3cnc4[nH]ccc4c23)C1 (stereo not drawn) [Ex. 95, 1-isopropyl-3-[1-(3H-pyrrolo[3,2-f][1,7]naphthyridin-9-yl)pyrrolidin-3-yl]urea]
- pIC50 [2]: < 7.70

SMILES: O=C(NC1CCN(c2ccnc3cnc4[nH]ccc4c23)C1)C1CC1 (stereo not drawn) [Ex. 96, N-[1-(3H-pyrrolo[3,2-f][1,7]naphthyridin-9-yl)pyrrolidin-3-yl]cyclopropanecarbox-amide]
- pIC50 [2]: < 7.70

SMILES: CC(C)C(=O)NC1CCN(c2ccnc3cnc4[nH]ccc4c23)C1 (stereo not drawn) [Ex. 97, 2-methyl-N-[1-(3H-pyrrolo[3,2-f][1,7]naphthyridin-9-yl)pyrrolidin-3-yl]propanamide]
- pIC50 [2]: < 7.70

SMILES: O=C(CC1CC1)NC1CCN(c2ccnc3cnc4[nH]ccc4c23)C1 (stereo not drawn) [Ex. 98, 2-cyclopropyl-N-[1-(3H-pyrrolo[3,2-f][1,7]naphthyridin-9-yl)pyrrolidin-3-yl]acetamide]
- pIC50 [2]: < 7.70

SMILES: N#CCC(=O)NC1CCN(c2ccnc3cnc4[nH]ccc4c23)C1 (stereo not drawn) [Ex. 99, 2-cyano-N-[1-(3H-pyrrolo[3,2-f][1,7]naphthyridin-9-yl)pyrrolidin-3-yl]acetamide]
- pIC50 [2]: < 7.70

SMILES: O=C(CC(F)(F)F)NC1CCN(c2ccnc3cnc4[nH]ccc4c23)C1 (stereo not drawn) [Ex. 100, 3,3,3-trifluoro-N-[1-(3H-pyrrolo[3,2-f][1,7]naphthyridin-9-yl)pyrrolidin-3-yl]propanamide]
- pIC50 [2]: 7.70 to 9.00

SMILES: CS(=O)(=O)NC1CCN(c2ccnc3cnc4[nH]ccc4c23)C1 (stereo not drawn) [Ex. 101, N-[1-(3H-pyrrolo[3,2-f][1,7]naphthyridin-9-yl)pyrrolidin-3-yl]methanesulfonamide]
- pIC50 [2]: 7.70 to 9.00

Reference: patent publication US9115133B2, “Substituted fused tricyclic compounds, compositions and medicinal applications thereof” (Advinus Therapeutics Limited, priority 2011, dated 2015)
